Experimental data from patent US20240090547A1, “SWEETENER COMPOSITIONS COMPRISING MOGROSIDES AND USES THEREOF” (Firmenich Incorporated, priority 2021, published 2024).

Columns and labels:
Format in all cases: in vivo, human
panel of flavorists [1] = experiment: Additional sensory testing for lemon-flavored (lemon-lime) beverage, flavorist panel; settings: 600 ppm mogrosides, 0 to 10 scale, letter in parentheses = Duncan's test group; for Sweet Linger: aftertaste, after expectoration; for Bitterness / Mouthfeel/Thickness / Peak Sweetness / Upfront Sweetness: in-mouth
Experimental: (§1) A panel of flavorists at three locations evaluated lemon-lime beverage various mogrosides at a concentration of 600 ppm mogrosides for in-mouth attributes (peak sweetness, upfront sweetness, bitterness, and mouthfeel/thickness) and aftertaste attributes (sweet taste linger), on a 0 to 10 scale. The in-mouth attributes were evaluated while holding the sample in the mouth, while the aftertaste attributes were evaluated after expectoration.

expert panelists = experiment: Expert panelists' comparison of mogrosides with stevia; settings: 'Examples 4 and 5', in words
panel of flavorists [2] = experiment: Additional sensory testing for vanilla milk, flavorist panel; settings: 400 ppm mogrosides, 0 to 10 scale, letter in parentheses = Duncan's test group; for Sweet Linger: aftertaste, after expectoration; for Bitterness / Mouthfeel/Thickness / Peak Sweetness / Upfront Sweetness: in-mouth
Experimental: as §1, with “vanilla milk containing” for “lemon-lime beverage”, “400” for “600”, “expectoration. The data was analyzed using Duncan's new multiple range test and the scores are provided in the data below in parentheses.” for “expectoration.”

Compound | Sweet Linger (panel of flavorists [1]) | Bitterness (panel of flavorists [1]) | Mouthfeel/Thickness (panel of flavorists [1]) | Peak Sweetness (panel of flavorists [1]) | Upfront Sweetness (panel of flavorists [1]) | bitter aftertaste compared with stevia (expert panelists) | licorice aftertaste compared with stevia (expert panelists) | mouthfeel compared with stevia (expert panelists) | Sweet Linger (panel of flavorists [2]) | Bitterness (panel of flavorists [2]) | Mouthfeel/Thickness (panel of flavorists [2]) | Peak Sweetness (panel of flavorists [2]) | Upfront Sweetness (panel of flavorists [2])
C[C@H](CC[C@@H](O[C@@H]1O[C@H](CO[C@@H]2O[C@H](CO)[C@@H](O)[C@H](O)[C@H]2O)[C@@H](O)[C@H](O)[C@H]1O[C@@H]1O[C@H](CO)[C@@H](O)[C@H](O)[C@H]1O)C(C)(C)O)[C@H]1CC[C@@]2(C)[C@@H]3CC=C4[C@@H](CC[C@H](O[C@@H]5O[C@H](CO)[C@@H](O[C@@H]6O[C@H](CO)[C@@H](O)[C@H](O)[C@H]6O)[C@H](O)[C@H]5O)C4(C)C)[C@]3(C)[C@H](O)C[C@]12C [Isomogroside V] | 4.857 (ab) | 2.286 (a) | 2.571 (b) | 5.571 (bc) | 4.000 (b) | lower bitter aftertaste | lower licorice aftertaste | better mouthfeel | 4.625 (b) | 0.875 (b) | 4.875 (ab) | 6.188 (b) | 5.125 (b)
C[C@H](CC[C@@H](O[C@@H]1O[C@H](CO[C@H]2O[C@H](CO)[C@@H](O)[C@H](O)[C@H]2O)[C@@H](O)[C@H](O)[C@H]1O[C@@H]1O[C@H](CO)[C@@H](O)[C@H](O)[C@H]1O)C(C)(C)O)[C@H]1CC[C@@]2(C)[C@]3(C)CC=C4[C@@H](CC[C@H](O[C@@H]5O[C@H](CO)[C@@H](O)[C@H](O)[C@H]5O)C4(C)C)[C@]3(C)[C@H](O)C[C@]12C [Siratose] | 6.143 (a) | 1.357 (a) | 4.143 (a) | 8.429 (a) | 6.571 (a) | lower bitter aftertaste | lower licorice aftertaste | better mouthfeel | 6.375 (a) | 1.750 (a) | 5.375 (a) | 8.000 (a) | 6.625 (a)
